Legend:
Format in all cases: biochemical
[1] = target: T1, CK2α2(h) (Homo sapiens, UniProt P19784); test: Kinase selectivity panel: CK2α2
T1 construct: purchased Eurofins (Millipore) KinaseProfiler Diversity Panel
Description: (§1) To confirm the anti-inflammatory effect was caused by RIPK2 inhibition, compound 14 was subjected to kinase selectivity evaluation (Figure 4). Kinase selectivity profile of compound 14 as shown by the diversity kinase Panel screen against 70 kinases assayed at 1 µM. Among all tested 70 kinases, only five were inhibited over 90% at 1 µM including Fyn, Lyn, BTK, Abl and RIPK2. Three kinases including KDR, CDK9 and LOK were inhibited 50–90% at 1 µM.

[2] = target: T2, Fyn(h) (Homo sapiens, UniProt P06241); test: Kinase selectivity panel: Fyn
T2 construct: purchased Eurofins (Millipore) KinaseProfiler Diversity Panel
Description: as §1

[3] = target: T3, IGF-1R(h) (Homo sapiens, UniProt P08069); test: Kinase selectivity panel: IGF-1R; settings: 1 µM
T3 construct: purchased Eurofins (Millipore) KinaseProfiler Diversity Panel
Description: as §1

[4] = target: T4, IKKα(h) (Homo sapiens, UniProt O15111); test: Kinase selectivity panel: IKKα
T4 construct: purchased Eurofins (Millipore) KinaseProfiler Diversity Panel
Description: as §1

[5] = target: T5, IRAK4(h) (Homo sapiens, UniProt Q9NWZ3); test: Kinase selectivity panel: IRAK4
T5 construct: purchased Eurofins (Millipore) KinaseProfiler Diversity Panel
Description: as §1

[6] = target: T6, JAK3(h) (Homo sapiens, UniProt P52333); test: Kinase selectivity panel: JAK3; settings: 1 µM
T6 construct: purchased Eurofins (Millipore) KinaseProfiler Diversity Panel
Description: as §1

[7] = target: T7, NEK2(h) (Homo sapiens, UniProt P51955); test: Kinase selectivity panel: NEK2; settings: 1 µM
T7 construct: purchased Eurofins (Millipore) KinaseProfiler Diversity Panel
Description: as §1

[8] = target: T8, PDGFRβ(h) (Homo sapiens, UniProt P09619); test: Kinase selectivity panel: PDGFRβ
T8 construct: purchased Eurofins (Millipore) KinaseProfiler Diversity Panel
Description: as §1

[9] = target: T9, PKCθ(h) (Homo sapiens, UniProt Q04759); test: Kinase selectivity panel: PKCθ
T9 construct: purchased Eurofins (Millipore) KinaseProfiler Diversity Panel
Description: as §1

[10] = target: T10, Plk3(h) (Homo sapiens, UniProt Q9H4B4); test: Kinase selectivity panel: Plk3; settings: 1 µM
T10 construct: purchased Eurofins (Millipore) KinaseProfiler Diversity Panel
Description: as §1

[11] = target: T11, PRAK(h) (Homo sapiens, UniProt Q8IW41); test: Kinase selectivity panel: PRAK; settings: 1 µM
T11 construct: purchased Eurofins (Millipore) KinaseProfiler Diversity Panel
Description: as §1

[12] = target: T12, RIPK2(h) (Homo sapiens, UniProt O43353); test: Kinase selectivity panel: RIPK2
T12 construct: purchased Eurofins (Millipore) KinaseProfiler Diversity Panel
Description: as §1

[13] = target: T13, PI3 Kinase (p120g)(h) (Homo sapiens, UniProt P48736); test: Kinase selectivity panel: PI3 Kinase (p120g); settings: 1 µM
T13 construct: purchased Eurofins (Millipore) KinaseProfiler Diversity Panel
Description: as §1

T12 sequence (O43353 whole entry): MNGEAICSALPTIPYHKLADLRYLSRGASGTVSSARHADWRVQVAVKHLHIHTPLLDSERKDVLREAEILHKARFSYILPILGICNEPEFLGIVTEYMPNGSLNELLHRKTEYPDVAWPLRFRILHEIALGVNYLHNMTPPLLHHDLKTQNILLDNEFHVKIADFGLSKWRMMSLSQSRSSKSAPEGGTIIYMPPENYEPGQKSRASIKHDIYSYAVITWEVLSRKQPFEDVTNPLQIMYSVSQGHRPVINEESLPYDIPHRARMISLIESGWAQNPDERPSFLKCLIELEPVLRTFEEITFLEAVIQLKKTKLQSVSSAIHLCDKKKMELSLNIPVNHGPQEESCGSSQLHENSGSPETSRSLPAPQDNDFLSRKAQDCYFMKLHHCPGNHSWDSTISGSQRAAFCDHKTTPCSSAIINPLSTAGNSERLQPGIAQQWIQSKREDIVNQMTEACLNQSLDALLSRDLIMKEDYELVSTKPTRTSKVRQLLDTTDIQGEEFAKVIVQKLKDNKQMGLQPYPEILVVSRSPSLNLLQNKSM
T2 sequence (P06241 whole entry): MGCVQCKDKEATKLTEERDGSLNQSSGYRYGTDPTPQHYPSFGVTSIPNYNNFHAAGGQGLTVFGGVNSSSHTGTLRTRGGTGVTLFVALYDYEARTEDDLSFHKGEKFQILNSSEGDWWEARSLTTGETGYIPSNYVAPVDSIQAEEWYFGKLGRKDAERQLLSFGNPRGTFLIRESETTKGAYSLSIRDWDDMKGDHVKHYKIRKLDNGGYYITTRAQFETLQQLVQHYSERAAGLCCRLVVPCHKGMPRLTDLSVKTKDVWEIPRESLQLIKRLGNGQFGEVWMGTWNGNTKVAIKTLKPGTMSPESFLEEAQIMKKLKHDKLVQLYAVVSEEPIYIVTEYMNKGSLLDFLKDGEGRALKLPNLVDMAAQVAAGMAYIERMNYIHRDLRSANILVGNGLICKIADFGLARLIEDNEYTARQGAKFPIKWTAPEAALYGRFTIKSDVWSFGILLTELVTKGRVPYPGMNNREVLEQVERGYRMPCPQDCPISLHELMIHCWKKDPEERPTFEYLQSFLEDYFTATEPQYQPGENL
T4 sequence (O15111 whole entry): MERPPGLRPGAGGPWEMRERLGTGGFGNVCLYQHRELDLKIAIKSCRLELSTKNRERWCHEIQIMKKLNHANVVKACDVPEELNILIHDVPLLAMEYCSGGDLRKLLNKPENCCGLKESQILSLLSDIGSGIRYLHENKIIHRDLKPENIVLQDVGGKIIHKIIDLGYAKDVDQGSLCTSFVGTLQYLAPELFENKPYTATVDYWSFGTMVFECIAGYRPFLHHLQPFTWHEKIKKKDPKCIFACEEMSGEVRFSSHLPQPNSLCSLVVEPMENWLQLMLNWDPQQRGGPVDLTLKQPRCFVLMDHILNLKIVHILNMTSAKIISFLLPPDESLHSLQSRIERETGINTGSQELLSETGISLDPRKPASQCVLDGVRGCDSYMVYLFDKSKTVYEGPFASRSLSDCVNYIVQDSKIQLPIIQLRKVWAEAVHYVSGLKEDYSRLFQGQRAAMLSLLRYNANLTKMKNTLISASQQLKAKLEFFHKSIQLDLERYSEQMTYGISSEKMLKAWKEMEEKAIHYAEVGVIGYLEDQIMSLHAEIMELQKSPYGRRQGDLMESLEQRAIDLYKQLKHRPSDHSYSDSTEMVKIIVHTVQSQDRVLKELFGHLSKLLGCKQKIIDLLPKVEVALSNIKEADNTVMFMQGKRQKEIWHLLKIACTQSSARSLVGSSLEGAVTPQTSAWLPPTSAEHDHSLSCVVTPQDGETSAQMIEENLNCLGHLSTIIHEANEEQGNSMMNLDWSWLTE
T5 sequence (Q9NWZ3 whole entry): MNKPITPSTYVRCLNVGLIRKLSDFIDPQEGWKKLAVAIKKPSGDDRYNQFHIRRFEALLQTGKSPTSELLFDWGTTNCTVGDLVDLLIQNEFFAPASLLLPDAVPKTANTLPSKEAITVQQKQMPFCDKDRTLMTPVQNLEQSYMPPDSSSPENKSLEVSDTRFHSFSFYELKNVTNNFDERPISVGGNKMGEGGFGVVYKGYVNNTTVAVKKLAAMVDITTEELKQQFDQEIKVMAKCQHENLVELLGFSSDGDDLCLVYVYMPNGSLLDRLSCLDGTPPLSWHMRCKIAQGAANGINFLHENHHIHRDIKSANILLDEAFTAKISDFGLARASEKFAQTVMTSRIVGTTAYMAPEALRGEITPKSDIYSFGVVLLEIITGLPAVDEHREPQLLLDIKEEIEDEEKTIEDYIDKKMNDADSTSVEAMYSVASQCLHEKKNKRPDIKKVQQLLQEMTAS
T6 sequence (P52333 whole entry): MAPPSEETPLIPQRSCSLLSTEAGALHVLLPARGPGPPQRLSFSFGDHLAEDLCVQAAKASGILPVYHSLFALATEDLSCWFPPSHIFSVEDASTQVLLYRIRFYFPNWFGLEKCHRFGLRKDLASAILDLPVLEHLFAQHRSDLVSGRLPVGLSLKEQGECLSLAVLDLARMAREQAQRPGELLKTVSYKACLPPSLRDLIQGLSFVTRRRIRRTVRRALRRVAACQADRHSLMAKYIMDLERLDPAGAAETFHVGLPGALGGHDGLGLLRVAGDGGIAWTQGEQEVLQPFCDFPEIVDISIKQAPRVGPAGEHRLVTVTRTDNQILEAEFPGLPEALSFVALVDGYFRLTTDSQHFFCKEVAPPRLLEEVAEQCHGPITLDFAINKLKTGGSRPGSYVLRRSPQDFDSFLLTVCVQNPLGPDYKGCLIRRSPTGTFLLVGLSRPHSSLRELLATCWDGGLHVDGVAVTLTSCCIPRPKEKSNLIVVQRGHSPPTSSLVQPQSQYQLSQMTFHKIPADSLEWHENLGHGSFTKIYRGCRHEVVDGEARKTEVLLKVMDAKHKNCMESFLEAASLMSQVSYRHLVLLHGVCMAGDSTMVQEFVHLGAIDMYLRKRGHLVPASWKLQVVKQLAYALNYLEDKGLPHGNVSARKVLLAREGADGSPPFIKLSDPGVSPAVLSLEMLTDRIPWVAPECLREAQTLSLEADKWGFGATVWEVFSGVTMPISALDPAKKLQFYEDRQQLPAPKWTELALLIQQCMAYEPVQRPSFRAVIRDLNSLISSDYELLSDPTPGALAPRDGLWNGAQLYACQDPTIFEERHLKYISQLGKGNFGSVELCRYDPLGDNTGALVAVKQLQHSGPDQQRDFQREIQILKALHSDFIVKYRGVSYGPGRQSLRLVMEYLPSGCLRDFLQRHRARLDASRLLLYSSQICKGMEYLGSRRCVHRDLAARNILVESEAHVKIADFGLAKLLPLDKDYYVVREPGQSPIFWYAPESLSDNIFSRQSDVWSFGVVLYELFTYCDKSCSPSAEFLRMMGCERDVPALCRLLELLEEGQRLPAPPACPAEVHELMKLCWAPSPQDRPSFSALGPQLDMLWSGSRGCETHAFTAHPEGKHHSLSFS
T10 sequence (Q9H4B4 whole entry): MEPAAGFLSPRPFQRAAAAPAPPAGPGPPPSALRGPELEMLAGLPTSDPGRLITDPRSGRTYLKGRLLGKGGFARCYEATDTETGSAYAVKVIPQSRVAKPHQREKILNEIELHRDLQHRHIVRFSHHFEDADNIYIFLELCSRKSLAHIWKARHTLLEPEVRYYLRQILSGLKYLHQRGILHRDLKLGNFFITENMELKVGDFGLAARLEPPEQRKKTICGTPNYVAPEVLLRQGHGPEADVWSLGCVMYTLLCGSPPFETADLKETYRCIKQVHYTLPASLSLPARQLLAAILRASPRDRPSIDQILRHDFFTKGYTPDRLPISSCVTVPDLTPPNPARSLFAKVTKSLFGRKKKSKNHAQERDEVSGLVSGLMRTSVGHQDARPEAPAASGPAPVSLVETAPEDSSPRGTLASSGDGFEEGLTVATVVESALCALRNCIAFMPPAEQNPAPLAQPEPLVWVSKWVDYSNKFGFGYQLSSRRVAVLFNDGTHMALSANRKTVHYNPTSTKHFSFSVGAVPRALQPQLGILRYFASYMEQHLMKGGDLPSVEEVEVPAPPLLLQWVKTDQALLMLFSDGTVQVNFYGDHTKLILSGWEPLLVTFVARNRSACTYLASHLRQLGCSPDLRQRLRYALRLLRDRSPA
T7 sequence (P51955 whole entry): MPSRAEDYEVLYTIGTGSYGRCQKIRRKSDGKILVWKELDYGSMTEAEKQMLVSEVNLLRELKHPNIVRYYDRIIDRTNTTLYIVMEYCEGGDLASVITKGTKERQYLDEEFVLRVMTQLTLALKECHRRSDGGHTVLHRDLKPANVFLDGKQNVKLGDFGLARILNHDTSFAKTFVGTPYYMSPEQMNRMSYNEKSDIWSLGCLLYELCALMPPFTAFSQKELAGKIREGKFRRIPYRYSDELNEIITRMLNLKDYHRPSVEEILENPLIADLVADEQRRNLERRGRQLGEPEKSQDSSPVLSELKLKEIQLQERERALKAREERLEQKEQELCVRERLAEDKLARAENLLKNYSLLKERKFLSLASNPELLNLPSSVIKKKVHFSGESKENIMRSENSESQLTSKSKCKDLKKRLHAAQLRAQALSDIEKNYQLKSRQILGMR
T1 sequence (P19784 whole entry): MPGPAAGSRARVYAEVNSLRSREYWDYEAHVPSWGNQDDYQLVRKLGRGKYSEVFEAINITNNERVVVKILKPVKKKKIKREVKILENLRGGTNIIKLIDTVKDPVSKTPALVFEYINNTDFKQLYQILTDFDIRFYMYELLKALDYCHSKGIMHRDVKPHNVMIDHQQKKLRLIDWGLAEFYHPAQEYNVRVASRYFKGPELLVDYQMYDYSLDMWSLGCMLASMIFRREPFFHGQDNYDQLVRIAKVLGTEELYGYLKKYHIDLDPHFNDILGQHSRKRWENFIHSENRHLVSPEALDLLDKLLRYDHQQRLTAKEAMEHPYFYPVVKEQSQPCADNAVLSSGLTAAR

c1cc(-c2ccc3nccc(Nc4ccc5scnc5c4)c3c2)ccn1 [Compound 14, N-(6-(pyridin-4-yl)quinolin-4-yl)benzo[d]thiazol-5-amine]
Remaining CK2α2 kinase activity (%) with compound 14 at 1 µM [1]: 104
Fyn remaining activity (%) ([2]; 1 µM): 0
inhibition at 1 µM ([2]; at 1 µM): > 90%
remaining IGF-1R activity (% of control) [3]: 109
Remaining IKKα activity at 1 µM (% of control) [4]: 104
Percent remaining IRAK4 activity with compound 14 at 1 µM [5]: 107
Remaining kinase activity (% of control) [6]: 100
percent remaining NEK2 kinase activity with compound 14 [7]: 88
Remaining kinase activity at 1 µM (% of control) [8]: 64
remaining kinase activity (% of control) at 1 µM [9]: 74
remaining Plk3 kinase activity (% of control) [10]: 86
remaining kinase activity (%) [11]: 123
RIPK2 remaining activity (% of control) ([12]; 1 µM): 3
inhibition at 1 µM ([12]; at 1 µM): > 90%
Remaining kinase activity (% of control) [13]: 79
